ChEMBL document CHEMBL5550142, “From lab to nature: Recent advancements in the journey of gastroprotective agents from medicinal chemistry to phytotherapy” (Eur J Med Chem, 2024)
Values after ≈ are worked out from the molar mass of the structure shown.

Columns and labels:
Helicobacter pylori [1] = test: Antibacterial activity against Helicobacter pylori ATCC 43504 assessed as minimum bactericidal concentration incubated for 24 hrs by broth micro-dilution method; format: functional
Rattus norvegicus [2] = test: Gastric ulcerogenic activity in Wistar rat assessed as reduction in gastric inflammation at 0.02 mg/kg, po relative to control; format: functional; parameters: scale not given: the % may be the effect or the level left
Helicobacter pylori [3] = test: Antibacterial activity against Helicobacter pylori assessed as inhibition of bacterial growth by broth micro-dilution assay; format: functional
[4] = Cmax in C57BL/6 mouse administered via oral gavage by LC-MS/MS analysis; format: ADME; details: in vivo
[5] = Inhibition of Hydrogen potassium ATPase (unknown origin); parameters: species or system Homo sapiens; details: read-out: IC50
Rattus norvegicus [6] = species: Rattus norvegicus; test: Anti-ulcer activity in stress-induced Sprague-Dawley rat […] model assessed as reduction in ulcer fomation; format: functional; parameters: Activity: concentration or dose not given beside the values; details: for ED50: Rattus norvegicus, Sprague-Dawley
Rattus norvegicus [7] = test: Protection against aspirin-induced Sprague-Dawley rat model assessed as reduction in gastric glandular lesion at 20 mg/kg, po administered for 30 mins once a day relative to control; format: functional; parameters: scale not given: the % may be the effect or the level left; details: 0.5 h
[8] = Inhibition of urease (unknown origin); parameters: species or system Homo sapiens
Mus musculus = test: Anti-ulcerogenic activity in ethanol-induced gastric ulcer mouse model assessed as reduction in ulcer formation at 250 mg/kg; format: functional
[9] = molecular target: T1, Gastrin/cholecystokinin type B receptor (Homo sapiens, UniProt P32239); test: Antagonist activity at human CCKBR; format: functional
T1 sequence (P32239 whole entry): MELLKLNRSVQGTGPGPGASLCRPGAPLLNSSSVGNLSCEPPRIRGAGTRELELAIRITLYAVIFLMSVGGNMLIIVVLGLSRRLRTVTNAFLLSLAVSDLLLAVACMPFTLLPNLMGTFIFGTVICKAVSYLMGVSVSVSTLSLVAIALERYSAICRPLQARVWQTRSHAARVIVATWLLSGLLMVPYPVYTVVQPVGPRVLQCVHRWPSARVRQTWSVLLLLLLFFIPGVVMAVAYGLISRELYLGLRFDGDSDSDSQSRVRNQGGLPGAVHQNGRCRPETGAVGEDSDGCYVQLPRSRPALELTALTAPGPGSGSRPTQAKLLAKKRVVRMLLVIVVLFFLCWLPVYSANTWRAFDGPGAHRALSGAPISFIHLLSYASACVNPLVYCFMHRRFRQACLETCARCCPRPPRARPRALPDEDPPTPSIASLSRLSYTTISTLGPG

Rattus norvegicus [10] = test: Gastric ulcerogenic activity in Albino wistar rat assessed as reduction in pyloric lesion at 250 mg/kg, po relative to control; format: functional; parameters: scale not given: the % may be the effect or the level left
[11] = molecular target: Urease subunit alpha/Urease subunit beta (Helicobacter pylori (strain ATCC 700392 / 26695) (Campylobacterpylori), UniProt P69996); test: Inhibition of Helicobacter pylori urease; format: protein-complex assay
Urease subunit alpha/Urease subunit beta, sequence (P69996 whole entry): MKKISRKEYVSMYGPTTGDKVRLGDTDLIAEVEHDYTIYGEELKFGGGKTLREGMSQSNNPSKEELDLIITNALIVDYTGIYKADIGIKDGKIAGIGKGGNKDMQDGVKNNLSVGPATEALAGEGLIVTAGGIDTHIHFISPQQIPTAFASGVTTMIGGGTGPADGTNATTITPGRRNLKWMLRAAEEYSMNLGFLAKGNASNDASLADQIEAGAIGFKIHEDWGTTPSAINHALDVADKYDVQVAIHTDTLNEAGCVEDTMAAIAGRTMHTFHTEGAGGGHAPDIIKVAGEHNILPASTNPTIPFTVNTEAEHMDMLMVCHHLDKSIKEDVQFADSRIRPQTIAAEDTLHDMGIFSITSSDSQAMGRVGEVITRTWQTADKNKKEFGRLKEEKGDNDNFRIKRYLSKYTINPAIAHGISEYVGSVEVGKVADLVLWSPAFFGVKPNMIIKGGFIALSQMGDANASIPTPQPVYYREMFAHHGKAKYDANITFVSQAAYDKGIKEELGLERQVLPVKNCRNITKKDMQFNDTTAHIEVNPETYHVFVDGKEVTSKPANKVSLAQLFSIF
Urease subunit alpha/Urease subunit beta, sequence (P14916 whole entry, further chain): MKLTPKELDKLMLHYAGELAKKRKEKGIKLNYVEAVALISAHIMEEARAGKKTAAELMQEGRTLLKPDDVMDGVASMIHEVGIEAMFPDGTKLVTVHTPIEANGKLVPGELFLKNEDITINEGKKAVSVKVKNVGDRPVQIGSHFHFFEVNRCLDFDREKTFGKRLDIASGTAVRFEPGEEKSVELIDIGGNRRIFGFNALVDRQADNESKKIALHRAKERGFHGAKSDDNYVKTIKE

COCCOCCOCCSc1cccc(CSc2nc3ccccc3[nH]2)c1C
MBC (Helicobacter pylori [1]): 0.5 mg/L (≈ 1.16 µM)

COCCOCCOCCOCCOCCSc1cccc(CSc2nc3ccccc3[nH]2)c1C
MBC (Helicobacter pylori [1]): 0.5 mg/L (≈ 0.96 µM)

Cc1c(CSc2nc3ccccc3[nH]2)cccc1SCCn1c([N+](=O)[O-])cnc1C
MBC (Helicobacter pylori [1]): 2 mg/L (≈ 4.55 µM)

Cc1c(CSc2nc3ccccc3[nH]2)cccc1SCCn1cncn1
MBC (Helicobacter pylori [1]): 4 mg/L (≈ 10.5 µM)

CN(C)c1ccc(/C=C/C(=C2C(=O)NC(=O)NC2=O)c2nc3ccccc3[nH]2)cc1
Activity (Rattus norvegicus [2]): 69.56%

O=C1NC(=O)C(=C(/C=C/c2ccccc2)c2nc3ccccc3[nH]2)C(=O)N1
Activity (Rattus norvegicus [2]): 63.04%

O=C1NC(=O)C(=C(/C=C/c2ccc(Cl)cc2)c2nc3ccccc3[nH]2)C(=O)N1
Activity (Rattus norvegicus [2]): 69.56%

COc1ccc(/C=C/C(=C2C(=O)NC(=O)NC2=O)c2nc3ccccc3[nH]2)cc1
Activity (Rattus norvegicus [2]): 67.17%

COc1nc(C[S+]([O-])c2nc3ccccc3[nH]2)nc2scc(-c3ccccc3)c12 (centres undefined)
Activity (Rattus norvegicus [2]): 64.6%

COc1ccc2[nH]c([S+]([O-])Cc3nc(Cl)c4c(-c5ccccc5)csc4n3)nc2c1 (centres undefined)
Activity (Rattus norvegicus [2]): 70.2%

COc1ccc2[nH]c([S+]([O-])Cc3nc(Cl)c4c(-c5ccc(Cl)cc5)csc4n3)nc2c1 (centres undefined)
Activity (Rattus norvegicus [2]): 72.6%

Cc1c(CSc2nc3ccccc3[nH]2)cccc1SCCN1CCOCC1
MBC (Helicobacter pylori [1]): 1 mg/L (≈ 2.5 µM)

Cc1c(CSc2nc3ccccc3[nH]2)cccc1SCCOC(=O)Nc1ccccc1
MIC90 (Helicobacter pylori [3]): > 64 mg/L
Cmax [4]: 0.9 µg/mL

Brc1ccc(C2CC(c3ccco3)=Nc3ccccc3S2)cc1 (centres undefined)
IC50 [5]: 2.1 µM

COc1ccc(C2CC(c3ccco3)=Nc3ccccc3S2)cc1 (centres undefined)
IC50 [5]: 2 µM

CC(C)Cc1ccc(C(C)C(=O)NS(=O)(=O)c2ccc(N)cc2)cc1 (centres undefined)
Activity (Rattus norvegicus [6]): 8%

CC(CC1OCCc2ccccc21)NCCc1ccccc1 (centres undefined)
Activity (Rattus norvegicus [7]): 71.3%

CC(C)NC(C)CC1OCCc2ccccc21 (centres undefined)
Activity (Rattus norvegicus [7]): 61%

CC(CC1CCCc2ccccc21)NCC(C)c1ccccc1 (centres undefined)
Activity (Rattus norvegicus [7]): 71.3%

COc1ccc(C(=O)N/N=C/c2cc(O)c(O)c(O)c2)cc1OC
IC50 [8]: 12.6 µM

Cc1cc(S(=O)(=O)N2CCN(S(=O)(=O)c3ccccc3)CC2)c2c(C)ccc(C(C)C)cc1-2
Activity_index (Mus musculus): 1.12

CCCc1ccc([C@@H]2N[C@H](C(=O)OC)CC3c4ccccc4NC32)cc1 (some centres undefined)
IC50 [9]: 140 µM

O=c1oc2ccccc2cc1-c1nc2c(s1)sc1nc(=S)n(-c3ccccc3)c(O)c12
Activity (Rattus norvegicus [10]): 78%

O=C(Cc1c[nH]c2ccccc12)N/N=C/c1ccc(O)cc1O
IC50 [11]: 1.2 µM

Cc1c(OCC(F)(F)C(F)(F)F)ccnc1C[S+]([O-])c1nc2ccccc2[nH]1 (centres undefined)
ED50 (Rattus norvegicus [6]): 5.1 mg/kg

CCOC(=O)/C(C(=O)Nc1sc2sc(-c3cc4ccccc4oc3=O)nc2c1C#N)=C(/C)c1ccccc1
Activity (Rattus norvegicus [10]): 48%

Cc1cc(S(=O)(=O)N2CCN(S(C)(=O)=O)CC2)c2c(C)ccc(C(C)C)cc1-2
Activity_index (Mus musculus): 1.714

C[C@]12CCC(=O)C=C1CC[C@@H]1[C@@H]2CC[C@]2(C)c3nc(NC4=C(C#N)C(c5ccc(Cl)cc5)C(C#N)=C(N)O4)sc3C[C@@H]12 (some centres undefined)
Activity_index (Mus musculus): 2.48

CCOC(=O)CN1CCN(S(=O)(=O)c2cc(C)c3cc(C(C)C)ccc(C)c2-3)CC1
Activity_index (Mus musculus): 1.875

COc1ccc(C(=O)N/N=C/c2cc(O)cc(O)c2)cc1OC
IC50 [8]: 8.4 µM

Cc1c(OCC(F)(F)C(F)F)ccnc1C[S+]([O-])c1nc2ccccc2[nH]1 (centres undefined)
ED50 (Rattus norvegicus [6]): 1.2 mg/kg

COc1ccc(C(=O)N/N=C/c2cc(O)ccc2O)cc1OC
IC50 [8]: 19.2 µM

COc1ccc(-n2ncc(-c3ccccc3)c(C(=O)Nc3sc4sc(-c5cc6ccccc6oc5=O)nc4c3C#N)c2=N)cc1
Activity (Rattus norvegicus [10]): 93%
